Experiments:
Assay in all cases: Cell viability drug screen, 12-point dose-response AUC
Format in all cases: cell-based, human
YCC3 = YCC3 cells; 72 hours
Experimental: (§1) An FDA-approved small-molecule pharmacological compound (#L1300) and an anticancer compound for research (#L2000) were purchased from Selecckchem and a 10 mM solution was prepared in DMSO. A total of 1,345 compounds were tested the cell viability of the seven EMT gastric cancer cell lines.
(§2) Cells cultured for cell-based drug assay were inoculated into a 96-well white optical plate (Corning) at 5×10^3 cells per well. After 24 hours after inoculation, a 2.5 MJT (primary screen) or a half-log 12-serial diluent (secondary screen) of the pharmacological compound contained in DMSO is added to the cells with a robot using a BioMek FXp liquid processor (Beckman) to add to the cells at 50 mM. The final drug concentration in the 5 ns range and the DMSO specification control (0.5%) were calculated. The cells were then further incubated at 37° C. in a 5% CO2 incubator for 72 hours prior to measuring cell viability using the extra-GLO assay kit (Promega). The luminescent properties were measured after 15 min incubation at room temperature using a plate stacker equipped with a plate stacker. The normalized viability for the DMSO-based control was measured to generate a cell line-specific 12-point dose-response curve for each pharmacological compound, and then the area under the curve (AUC) was calculated using a trapezoidal method. […] The results of the repeated experiments were averaged to generate AUC values for each cell line for each compound.

MKN74 = MKN74 cells; 72 hours
Experimental: as §1, §2

MKN28 = MKN28 cells; 72 hours
Experimental: as §1, §2

SNU620 = SNU620 cells; 72 hours
Experimental: as §1, §2

YCC2 = YCC2 cells; 72 hours
Experimental: as §1, §2

SNU216 = SNU216 cells (non-SEM subtype); 72 hours
Experimental: as §1, §2

SK4 = SK4 cells (SEM subtype); 72 hours
Experimental: as §1, §2

NCC59 = NCC59 cells; 72 hours
Experimental: as §1, §2

KATO3 = KATO3 cells; 72 hours
Experimental: as §1, §2

SNU1967 = SNU1967 cells; 72 hours
Experimental: as §1, §2

MKN45 = MKN45 cells (non-SEM subtype); 72 hours
Experimental: as §1, §2

SNU601 = SNU601 cells; 72 hours
Experimental: as §1, §2

AGS = AGS cells (non-SEM subtype); 72 hours
Experimental: as §1, §2

SNU668 = SNU668 cells (SEM subtype); 72 hours
Experimental: as §1, §2

OCUM1 = OCUM1 cells; 72 hours
Experimental: as §1, §2

NCI_N87 = NCI_N87 cells; 72 hours
Experimental: as §1, §2

Hs746T = Hs746T cells (SEM subtype); 72 hours
Experimental: as §1, §2

SNU719 = SNU719 cells; 72 hours
Experimental: as §1, §2

SNU1750 = SNU1750 cells (SEM subtype); 72 hours
Experimental: as §1, §2

NCC19 = NCC19 cells; 72 hours
Experimental: as §1, §2

SNU1 = SNU1 cells; 72 hours
Experimental: as §1, §2

SNU638 = SNU638 cells; 72 hours
Experimental: as §1, §2

NCC20 = NCC20 cells; 72 hours
Experimental: as §1, §2

SNU484 = SNU484 cells (SEM subtype); 72 hours
Experimental: as §1, §2

SNU16 = SNU16 cells; 72 hours
Experimental: as §1, §2

NCC24 = NCC24 cells; 72 hours
Experimental: as §1, §2

MKN1 = MKN1 cells; 72 hours
Experimental: as §1, §2

YCC11 = YCC11 cells (SEM subtype); 72 hours
Experimental: as §1, §2

FU97 = test system: FU97; set-up: Average Area Under the Viability Curve (AUC), AUC norm value: scale not given here; settings: FU97 cells; 72 hours
Experimental: Cells cultured for cell-based drug assay were inoculated into a 96-well white optical plate (Corning) at 5×10^3 cells per well. After 24 hours after inoculation, a 2.5 MJT (primary screen) or a half-log 12-serial diluent (secondary screen) of the pharmacological compound contained in DMSO is added to the cells with a robot using a BioMek FXp liquid processor (Beckman) to add to the cells at 50 mM. The final drug concentration in the 5 ns range and the DMSO specification control (0.5%) were calculated. The cells were then further incubated at 37° C. in a 5% CO2 incubator for 72 hours prior to measuring cell viability using the extra-GLO assay kit (Promega). The luminescent properties were measured after 15 min incubation at room temperature using a plate stacker equipped with a plate stacker. The normalized viability for the DMSO-based control was measured to generate a cell line-specific 12-point dose-response curve for each pharmacological compound, and then the area under the curve (AUC) was calculated using a trapezoidal method.

Row | SMILES | Average Area Under the Viability Curve (AUC), AUC norm value (YCC3) | Average Area Under the Viability Curve (AUC), AUC norm value (MKN74) | Average Area Under the Viability Curve (AUC), AUC norm value (MKN28) | Average Area Under the Viability Curve (AUC), AUC norm value (SNU620) | Average Area Under the Viability Curve (AUC), AUC norm value (YCC2) | Average Area Under the Viability Curve (AUC), AUC norm value (SNU216) | Average Area Under the Viability Curve (AUC), AUC norm value (SK4) | Average Area Under the Viability Curve (AUC), AUC norm value (NCC59) | Average Area Under the Viability Curve (AUC), AUC norm value (KATO3) | Average Area Under the Viability Curve (AUC), AUC norm value (SNU1967) | Average Area Under the Viability Curve (AUC), AUC norm value (MKN45) | Average Area Under the Viability Curve (AUC), AUC norm value (SNU601) | Average Area Under the Viability Curve (AUC), AUC norm value (AGS) | Average Area Under the Viability Curve (AUC), AUC norm value (SNU668) | Average Area Under the Viability Curve (AUC), AUC norm value (OCUM1) | Average Area Under the Viability Curve (AUC), AUC norm value (NCI_N87) | Average Area Under the Viability Curve (AUC), AUC norm value (Hs746T) | Average Area Under the Viability Curve (AUC), AUC norm value (SNU719) | Average Area Under the Viability Curve (AUC), AUC norm value (SNU1750) | Average Area Under the Viability Curve (AUC), AUC norm value (NCC19) | also measured
1 | OC1(c2ccc(Cl)c(C(F)(F)F)c2)CCN(CCCC(c2ccc(F)cc2)c2ccc(F)cc2)CC1 [Penfluridol] | 0.4477 | −1.133 | −0.6097 | 0.04726 | −0.07658 | −0.5069 | −0.5075 | 0.3439 | 0 | −0.08879 | 0.9981 | 0.6748 | −0.6917 | 0.00275 | 0.2066 | 0.3682 | 0.2822 | 0.3303 | −0.03209 | 0.6239 | Average Area Under the Viability Curve (AUC), AUC norm value (SNU1): 0.8479; Average Area Under the Viability Curve (AUC), AUC norm value (SNU638): −1.32; Average Area Under the Viability Curve (AUC), AUC norm value (NCC20): −0.8471; Average Area Under the Viability Curve (AUC), AUC norm value (SNU484): −0.3957; Average Area Under the Viability Curve (AUC), AUC norm value (SNU16): −1.2587; Average Area Under the Viability Curve (AUC), AUC norm value (NCC24): 0.5023; Average Area Under the Viability Curve (AUC), AUC norm value (MKN1): −0.01646; Average Area Under the Viability Curve (AUC), AUC norm value (YCC11): −0.5164; Average Area Under the Viability Curve (AUC), AUC norm value (FU97): 0.09295
2 | O=C(Nc1c[nH]nc1-c1nc2ccc(CN3CCOCC3)cc2[nH]1)NC1CC1 [AT9283] | 0.6619 | 0.4728 | −1.903 | −4.059 | 0.07527 | 0.5323 | −0.4441 | 0.5882 | 0.5115 | −0.1244 | −0.1996 | 1.648 | −0.9303 | 0.6968 | 0 | 0.1418 | 0.9084 | 3.019 | −1.7502 | 2.247 | Average Area Under the Viability Curve (AUC), AUC norm value (SNU1): −3.743; Average Area Under the Viability Curve (AUC), AUC norm value (SNU638): −0.01142; Average Area Under the Viability Curve (AUC), AUC norm value (NCC20): −2.941; Average Area Under the Viability Curve (AUC), AUC norm value (SNU484): −1.872; Average Area Under the Viability Curve (AUC), AUC norm value (SNU16): −3.809; Average Area Under the Viability Curve (AUC), AUC norm value (NCC24): −0.6909; Average Area Under the Viability Curve (AUC), AUC norm value (MKN1): −2.315; Average Area Under the Viability Curve (AUC), AUC norm value (YCC11): −1.467
3 | Cc1ccc(C(=O)N(CCCN)[C@@H](c2nc3cc(Cl)ccc3c(=O)n2Cc2ccccc2)C(C)C)cc1 [Ispinesib (SB-715992), Ispinesib] | 2.007 | 0 | −1.956 | −1.255 | 0.7987 | 1.801 | −0.8267 | 2.6543 | 2.999 | 1.562 | 1.833 | −1.371 | −2.131 | 0.1001 | 1.297 | −0.0052 | 1.046 | 2.542 | 0.2265 | 1.111 | Average Area Under the Viability Curve (AUC), AUC norm value (SNU1): −1.68; Average Area Under the Viability Curve (AUC), AUC norm value (SNU638): −0.203; Average Area Under the Viability Curve (AUC), AUC norm value (NCC20): −0.9939; Average Area Under the Viability Curve (AUC), AUC norm value (SNU484): −0.9509; Average Area Under the Viability Curve (AUC), AUC norm value (SNU16): −1.935; Average Area Under the Viability Curve (AUC), AUC norm value (NCC24): −0.8348; Average Area Under the Viability Curve (AUC), AUC norm value (MKN1): −1.178; Average Area Under the Viability Curve (AUC), AUC norm value (YCC11): −1.381

Source: patent US20250129430A1, “HIGH ATP-AFFINITY PROTEIN AS THERAPEUTIC TARGET FOR INTRACTABLE CANCER MOLECULAR SUBTYPES AND INHIBITOR THEREOF” (VeraVerse Co., Ltd., priority 2021, published 2025)
